35 compounds from patent US12410179B2, “Modulators of TNF alpha activity and uses thereof” (RayThera, Inc., priority 2023, dated 2025) can be followed below.

The IC50 is the concentration at which inhibition is half-maximal. As a reminder, the Emax is the maximal effect, on the per cent scale that the assay sets.

The first experiment deals with TNFα (Homo sapiens, UniProt P01375). The experiment can be described thus: HEK-Blue hTNFα reporter assay. In kind it is cell-based. Further details: purchased R&D biosystem (R&D Systems) 210-TA-020/CF. The settings on record: HEK-Blue hTNFα reporter cells, SEAP readout; read-out: IC50 Range. In outline: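 Compounds preincubated 1 h at 37 °C with recombinant hTNFα ([…]), then added to HEK293 NF-κB-SEAP reporter cells, 10000 cells/well, 24 h at 37 °C. SEAP read by QUANTI-Blue at OD620; % inhibition versus stimulated and unstimulated controls, IC50 by 4-parameter fit.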
TNFα, sequence (P01375 77-233 limits assumed): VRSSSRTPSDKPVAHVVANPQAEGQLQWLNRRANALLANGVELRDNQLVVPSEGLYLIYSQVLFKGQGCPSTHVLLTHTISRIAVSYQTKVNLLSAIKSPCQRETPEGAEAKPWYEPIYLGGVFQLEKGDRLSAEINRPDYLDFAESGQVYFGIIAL
In general terms: Reporter assays use an easily measured gene product as a stand-in for the process of interest.
Consider `[2H]C([2H])([2H])N1C(=O)c2cccc(OC(F)F)c2[C@H]2C[C@@H]1c1nn3ccc(-c4cnc5c(c4)CC[C@]5(C)N)cc3c12` [Example 327], for which the IC50 is < 25 nM.

Take `CN1C(=O)c2cccc(OC(F)F)c2[C@H]2C[C@@H]1c1nn3ccc(-c4cnc(C5(N)CC5)nc4)nc3c12` [Example 6, (7R,14S)-12-(2-(1-aminocyclopropyl)pyrimidin-5-yl)-1-(difluoromethoxy)-6-methyl-6,7-dihydro-7,14-methanobenzo[c]pyrimido[1′,2′:1,5]pyrazolo[4,3-f]azocin-5 (14H)-one]: the IC50 was < 25 nM.

As for `[2H]C([2H])([2H])N1C(=O)c2cccc(C#N)c2[C@H]2C[C@@H]1c1nn3ccc(-c4cnc([C@]5(N)C[C@@](C)(C#N)C5)nc4)cc3c12` [Example 308], the IC50 was < 25 nM.

`CN1C(=O)c2cccc(OC(F)F)c2[C@H]2C[C@@H]1c1nn3ccc(-c4cnc([C@@H](N)C5CC5)nc4)cc3c12` [Example 104]: the IC50 is < 25 nM.

As to `C[C@H](O)[C@@H](O)c1ncc(-c2ccn3nc4c(c3c2)[C@@H]2C[C@H]4N(C)C(=O)c3cccc(OC(F)F)c32)cn1` [Example 118], the 50% inhibitory concentration (IC50) was < 25 nM.

In the case of `CN1C(=O)c2cccc(OC(F)F)c2[C@H]2C[C@@H]1c1nn3ccc(-c4cnc([C@]5(O)C[C@@](C)(C#N)C5)nc4)cc3c12` [Example 18], the IC50 was < 25 nM.

On to `[2H]C([2H])([2H])N1C(=O)c2cccc(OC(F)F)c2[C@H]2C[C@@H]1c1nn3ccc(-c4cnc([C@]5(N)C[C@@](C)(C#N)C5)nc4C)nc3c12` [Example 230], for which the IC50 was < 25 nM.

With `[2H]C([2H])([2H])N1C(=O)c2cccc(OC(F)F)c2[C@H]2C[C@@H]1c1nn3ccc(-c4cnc5c(c4)CC[C@@]5(C)N)cc3c12` [Example 328], the 50% inhibitory concentration (IC50) was < 25 nM.

For the compound `CN1C(=O)c2cccc(OC(F)F)c2[C@H]2C[C@@H]1c1nn3cc(F)c(-c4cnc([C@@](C)(O)CO)nc4)cc3c12` [Example 115], the IC50 was < 25 nM.

As to `CN1C(=O)c2cccc(OC(F)F)c2[C@H]2C[C@@H]1c1nn3ccc(-c4ccc([C@]5(N)C[C@@](C)(C(=O)O)C5)c(F)c4)cc3c12` [Example 154], the IC50 is < 25 nM.

Consider `C[C@]1(C#N)C[C@](N)(c2ncc(-c3nc4c5c(nn4cc3F)[C@H]3C[C@@H]5c4c(OC(F)F)cccc4C(=O)N3)cn2)C1` [Example 235], for which the IC50 is < 25 nM.

With `[2H]C([2H])([2H])N1C(=O)c2cccc(OC(F)F)c2[C@H]2C[C@@H]1c1nn3ccc(-c4cnc([C@]5(O)C[C@@](C)(N)C5)cn4)cc3c12` [Example 253], the IC50 is < 25 nM.

For `[2H]C([2H])([2H])N1C(=O)c2cccc(OC(F)F)c2[C@H]2C[C@@H]1c1nn3cc(F)c(-c4ccc(P(C)(C)=O)nc4)cc3c12` [Example 113], the IC50 was < 25 nM.

With `[2H]C([2H])([2H])N1C(=O)c2cccc(OC(F)F)c2[C@H]2C[C@@H]1c1nn3cc(C)c(-c4cnc(C5(N)CCC5)nc4)cc3c12` [Example 181], the IC50 was < 25 nM.

For `[2H]C([2H])([2H])N1C(=O)c2cccc(OC(F)F)c2[C@H]2C[C@@H]1c1nn3cnc(-c4cnc(C5(N)CC5)nc4)cc3c12` [Example 245], the half-inhibitory concentration (IC50) was < 25 nM.

Turning to `CN1C(=O)c2cccc(OC(F)F)c2[C@H]2C[C@@H]1c1nn3ccc(-c4cnc([C@@](C)(O)C(F)F)nc4)cc3c12` [Example 73], the IC50 was < 25 nM.

Turning to `[2H]C([2H])([2H])N1C(=O)c2cccc(OC(F)F)c2[C@H]2C[C@@H]1c1nn3ccc(-c4cnc(C5(N)COC5)nc4)nc3c12` [Example 177], the IC50 fell in the range of 25 to 100 nM.

Regarding `[2H]C([2H])([2H])N1C(=O)c2cccc(OC(F)F)c2[C@H]2C[C@@H]1c1nn3ccc(-c4cnc([C@]5(N)C[C@@H](O)C5)nc4)cc3c12` [Example 187], the IC50 is < 25 nM.

As for `CN1C(=O)c2cc(F)cc(OC(F)F)c2[C@H]2C[C@@H]1c1nn3ccc(-c4ccc(P(C)(C)=O)nc4)cc3c12` [Example 35], the IC50 was < 25 nM.

Consider `[2H]C([2H])([2H])N1C(=O)c2cccc(OC(F)F)c2[C@H]2C[C@@H]1c1nn3cc(C)c(-c4cnc([C@]5(N)C[C@@](C)(O)C5)nc4)cc3c12` [Example 201], for which the IC50 was < 25 nM.

On to `CN1C(=O)c2cccc(OC(F)F)c2[C@H]2C[C@@H]1c1nn3ccc(-c4cnc([C@@]5(O)CC[C@H](O)C5)nc4)cc3c12` [Example 102], for which the half-inhibitory concentration (IC50) is < 25 nM.

On to `CN1C(=O)c2cccc(OC(F)F)c2[C@H]2C[C@@H]1c1nn3ccc(-c4cnc(C5(O)CCOCC5)nc4)cc3c12` [Example 65], for which the IC50 is < 25 nM.

For the compound `[2H]C([2H])([2H])N1C(=O)c2cccc(OC(F)F)c2[C@H]2C[C@@H]1c1nn3ccc(-c4cnc(C5(N)CCC5)nc4)nc3c12` [Example 52], the IC50 is < 25 nM.

`CN1C(=O)c2cccc(OC(F)F)c2[C@H]2C[C@@H]1c1nn3ccc(-c4cnc(C(C)(C)O)nc4)nc3c12` [Example 11, (7R,14S)-1-(difluoromethoxy)-12-(2-(2-hydroxypropan-2-yl)pyrimidin-5-yl)-6-methyl-6,7-dihydro-7,14-methanobenzo[c]pyrimido[1′,2′:1,5]pyrazolo[4,3-f]azocin-5 (14H)-one]: the IC50 was in the range of 25 to 100 nM.

For the compound `CN1C(=O)c2cccc(OC(F)F)c2[C@H]2C[C@@H]1c1nn3ccc(-c4cnc([C@]5(N)C[C@](C)(C#N)C5)nc4)cc3c12` [Example 167], the IC50 was < 25 nM.

Take `CN1C(=O)c2cccc(OC(F)F)c2[C@H]2C[C@@H]1c1nn3cnc(-c4cnc(C5(N)CC(F)(F)C5)nc4)cc3c12` [Example 146]: the IC50 was < 25 nM.

Consider `[2H]C([2H])([2H])N1C(=O)c2cccc(OC(F)F)c2[C@H]2C[C@@H]1c1nn3cc(F)c(-c4cnc(C(C)(C)N)nc4)nc3c12` [Example 287], for which the IC50 was < 25 nM.

As to `CN1C(=O)c2cccc(OC(F)F)c2[C@H]2C[C@@H]1c1nn3ccc(-c4ncc([C@@H](O)[C@@H]5CCO5)cn4)cc3c12` [Example 129], the concentration for half-maximal inhibition (IC50) is < 25 nM.

On to `[2H]C([2H])([2H])N1C(=O)c2cccc(OC(F)F)c2[C@H]2C[C@@H]1c1nn3cc(C)c(-c4cnc(C5(N)CCC5)nc4)nc3c12` [Example 216], for which the IC50 is < 25 nM.

For the compound `CN1C(=O)c2cccc(OC(F)F)c2[C@H]2C[C@@H]1c1nn3cc(F)c(-c4cnc([C@]5(N)C[C@@](C)(O)C5)nc4)cc3c12` [Example 36], the IC50 is < 25 nM.

On to `CN1C(=O)c2cccc(OC(F)F)c2[C@H]2C[C@@H]1c1nn3ccc(-c4cnc([C@@H](O)CN5CCC5)nc4)cc3c12` [Example 171], for which the concentration for half-maximal inhibition (IC50) was in the range of 25 to 100 nM.

As for `C[C@@](O)(CC#N)c1ncc(-c2cc3c4c(nn3cc2F)[C@H]2C[C@@H]4c3c(OC(F)F)cccc3C(=O)N2)cn1` [Example 191], the IC50 was < 25 nM.

On to `C[C@]1(C#N)C[C@](N)(c2ccc(-c3ccn4nc5c(c4c3)[C@@H]3C[C@H]5NC(=O)c4cccc(OC(F)F)c43)cn2)C1` [Example 212], for which the IC50 was < 25 nM.

Staying with this experiment, now noted: HEK-Blue hTNFα reporter cells; read-out: TNFα reporter, Emax.
Take `CN1C(=O)c2cccc(OC(F)F)c2[C@H]2C[C@@H]1c1nc3ccc(-c4cnc([C@]5(N)C[C@@](C)(C#N)C5)c(F)c4)cc3n12` [Comp. Ex #8, reference compound]: the Emax amounted to 80%.

As to `CN1C(=O)c2cccc(OC(F)F)c2[C@H]2C[C@@H]1c1nc3ccc(-c4cnc([C@]5(N)C[C@@](C)(CO)C5)nc4)cc3n12` [Comp. Ex #7, reference compound], the Emax was 92%.

For the compound `CN1C(=O)c2cccc(OC(F)F)c2[C@H]2C[C@@H]1c1nn3ccc(-c4cnc(C5(O)CCOCC5)nc4)cc3c12` [Example 65], the maximal response (Emax) is 90%.

The experiment is the same for the next values; noted with them: HEK-Blue hTNFα reporter cells; read-out: TNFα reporter, IC50.
Take `CN1C(=O)c2cccc(OC(F)F)c2[C@H]2C[C@@H]1c1nc3ccc(-c4cnc([C@]5(N)C[C@@](C)(C#N)C5)c(F)c4)cc3n12` [Comp. Ex #8, reference compound]: the 50% inhibitory concentration (IC50) was 5.3 nM.

As to `CN1C(=O)c2cccc(OC(F)F)c2[C@H]2C[C@@H]1c1nc3ccc(-c4cnc([C@]5(N)C[C@@](C)(CO)C5)nc4)cc3n12` [Comp. Ex #7, reference compound], the IC50 stood at 4.2 nM.

For the compound `CN1C(=O)c2cccc(OC(F)F)c2[C@H]2C[C@@H]1c1nn3ccc(-c4cnc(C5(O)CCOCC5)nc4)cc3c12` [Example 65], the IC50 amounted to 3.1 nM.
